{
  "source": "paper PMC8550792",
  "about": "“Evolution of kinase polypharmacology across HSP90 drug discovery” (Cell Chemical Biology, 2021)",
  "test_in_all_cases": "biochemical",
  "type_in_all_cases": "biochemical",
  "key": {"[1]": {"molecular_target": "T1, 382 unique human kinases (Homo sapiens, UniProt P05129)", "T1 construct": "purchased Reaction Biology (HotSpot contract assay)", "settings": "kinase PKCg, compound 10 uM; for remaining activity at 10 µM: read-out: % Enzyme Activity (relative to DMSO controls)"}, "[2]": {"molecular_target": "T2, 382 unique human kinases (Homo sapiens, UniProt Q04771, R206H)", "T2 construct": "purchased Reaction Biology (HotSpot contract assay)", "T2 sequence (Q04771 21-509 R206H)": "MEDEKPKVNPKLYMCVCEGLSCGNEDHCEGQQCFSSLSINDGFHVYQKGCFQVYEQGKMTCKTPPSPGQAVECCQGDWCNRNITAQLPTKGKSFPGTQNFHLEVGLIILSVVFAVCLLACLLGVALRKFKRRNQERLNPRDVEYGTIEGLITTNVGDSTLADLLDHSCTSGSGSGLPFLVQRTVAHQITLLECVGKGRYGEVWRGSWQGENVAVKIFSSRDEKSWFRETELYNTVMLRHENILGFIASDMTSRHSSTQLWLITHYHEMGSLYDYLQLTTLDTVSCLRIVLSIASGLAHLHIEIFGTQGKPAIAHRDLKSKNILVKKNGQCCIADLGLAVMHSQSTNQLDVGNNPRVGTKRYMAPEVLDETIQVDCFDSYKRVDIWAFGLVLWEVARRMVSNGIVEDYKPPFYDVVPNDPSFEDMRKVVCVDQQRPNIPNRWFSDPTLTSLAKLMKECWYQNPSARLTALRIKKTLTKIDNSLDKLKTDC", "settings": "ALK2 (R206H), compound at 10 uM, duplicate values; for remaining activity at 10 µM: read-out: % Enzyme Activity (relative to DMSO controls)"}, "[3]": {"molecular_target": "T3, 382 unique human kinases (Homo sapiens, UniProt Q9UHD2)", "T3 construct": "purchased Reaction Biology (HotSpot contract assay)", "T3 sequence (Q9UHD2 1-729)": "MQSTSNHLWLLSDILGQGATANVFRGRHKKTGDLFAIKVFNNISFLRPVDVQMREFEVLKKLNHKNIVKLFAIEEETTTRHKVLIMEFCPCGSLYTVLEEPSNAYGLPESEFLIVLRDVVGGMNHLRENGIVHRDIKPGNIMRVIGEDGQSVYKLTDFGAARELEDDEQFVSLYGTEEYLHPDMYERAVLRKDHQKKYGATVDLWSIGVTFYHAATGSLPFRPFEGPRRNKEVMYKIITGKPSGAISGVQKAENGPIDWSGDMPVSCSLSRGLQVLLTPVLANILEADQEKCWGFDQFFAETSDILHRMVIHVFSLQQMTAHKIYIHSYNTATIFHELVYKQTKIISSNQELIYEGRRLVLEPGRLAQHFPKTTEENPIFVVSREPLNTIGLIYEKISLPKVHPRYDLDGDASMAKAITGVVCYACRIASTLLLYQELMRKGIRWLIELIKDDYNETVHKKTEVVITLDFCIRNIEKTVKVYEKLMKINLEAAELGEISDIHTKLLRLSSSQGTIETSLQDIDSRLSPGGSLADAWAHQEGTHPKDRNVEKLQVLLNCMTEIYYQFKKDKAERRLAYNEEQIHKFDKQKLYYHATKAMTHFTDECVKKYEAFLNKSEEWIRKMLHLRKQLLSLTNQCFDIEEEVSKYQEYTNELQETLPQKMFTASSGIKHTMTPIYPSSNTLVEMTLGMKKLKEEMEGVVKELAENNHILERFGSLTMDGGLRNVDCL", "settings": "kinase TBK1, compound 10 uM; for remaining activity at 10 µM: read-out: % Enzyme Activity (relative to DMSO controls)"}, "[4]": {"molecular_target": "T4, 382 unique human kinases (Homo sapiens, UniProt Q9Y6M4)", "T4 construct": "purchased Reaction Biology (HotSpot contract assay)", "settings": "kinase CK1g3, compound 10 uM; for remaining activity at 10 µM: read-out: % Enzyme Activity (relative to DMSO controls)"}, "[5]": {"molecular_target": "T5, 382 unique human kinases (Homo sapiens, UniProt P07949, V804E)", "T5 construct": "purchased Reaction Biology (HotSpot contract assay)", "T5 sequence (P07949 29-1114 V804E)": "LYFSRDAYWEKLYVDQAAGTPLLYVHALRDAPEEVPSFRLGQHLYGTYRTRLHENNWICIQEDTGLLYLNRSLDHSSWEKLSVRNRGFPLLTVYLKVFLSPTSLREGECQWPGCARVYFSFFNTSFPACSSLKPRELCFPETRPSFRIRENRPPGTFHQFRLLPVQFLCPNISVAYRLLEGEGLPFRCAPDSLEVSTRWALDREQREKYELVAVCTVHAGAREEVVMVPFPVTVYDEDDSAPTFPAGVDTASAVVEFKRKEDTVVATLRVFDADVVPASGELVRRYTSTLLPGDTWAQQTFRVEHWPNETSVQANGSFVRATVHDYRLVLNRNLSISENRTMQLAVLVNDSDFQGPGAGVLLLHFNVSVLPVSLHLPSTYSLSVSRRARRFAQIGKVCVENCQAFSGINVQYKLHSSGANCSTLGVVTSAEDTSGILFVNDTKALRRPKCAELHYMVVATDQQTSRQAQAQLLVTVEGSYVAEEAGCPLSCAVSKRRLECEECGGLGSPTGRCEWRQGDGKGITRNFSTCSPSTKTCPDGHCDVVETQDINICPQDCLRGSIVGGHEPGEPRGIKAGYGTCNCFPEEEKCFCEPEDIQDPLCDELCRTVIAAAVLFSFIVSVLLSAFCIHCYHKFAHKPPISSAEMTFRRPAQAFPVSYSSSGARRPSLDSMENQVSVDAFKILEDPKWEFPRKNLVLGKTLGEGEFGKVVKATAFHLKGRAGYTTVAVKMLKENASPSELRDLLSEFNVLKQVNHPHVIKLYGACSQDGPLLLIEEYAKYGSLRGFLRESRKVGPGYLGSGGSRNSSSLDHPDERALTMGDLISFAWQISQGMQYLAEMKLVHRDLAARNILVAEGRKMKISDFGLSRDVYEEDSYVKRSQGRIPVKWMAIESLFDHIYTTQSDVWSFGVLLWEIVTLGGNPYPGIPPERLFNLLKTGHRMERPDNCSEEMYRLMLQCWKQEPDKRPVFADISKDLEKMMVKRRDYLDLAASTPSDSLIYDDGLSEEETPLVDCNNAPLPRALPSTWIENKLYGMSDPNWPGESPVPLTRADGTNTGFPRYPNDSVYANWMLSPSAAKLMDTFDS", "settings": "RET (V804E), 10 uM; for remaining activity at 10 µM: read-out: % Enzyme Activity (relative to DMSO controls)"}, "[6]": {"molecular_target": "T6, 382 unique human kinases (Homo sapiens, UniProt P07949, Y791F)", "T6 construct": "purchased Reaction Biology (HotSpot contract assay)", "T6 sequence (P07949 29-1114 Y791F)": "as the sequence (P07949 29-1114 V804E) above, with Y763F, E776V counted along it", "settings": "[ATP] 15 µM, compound 10 uM, read-out: % Enzyme Activity (relative to DMSO controls)"}, "[7]": {"molecular_target": "T7, 382 unique human kinases (Homo sapiens, UniProt P16234, D842V)", "T7 construct": "purchased Reaction Biology (HotSpot contract assay)", "T7 sequence (P16234 24-1089 D842V)": "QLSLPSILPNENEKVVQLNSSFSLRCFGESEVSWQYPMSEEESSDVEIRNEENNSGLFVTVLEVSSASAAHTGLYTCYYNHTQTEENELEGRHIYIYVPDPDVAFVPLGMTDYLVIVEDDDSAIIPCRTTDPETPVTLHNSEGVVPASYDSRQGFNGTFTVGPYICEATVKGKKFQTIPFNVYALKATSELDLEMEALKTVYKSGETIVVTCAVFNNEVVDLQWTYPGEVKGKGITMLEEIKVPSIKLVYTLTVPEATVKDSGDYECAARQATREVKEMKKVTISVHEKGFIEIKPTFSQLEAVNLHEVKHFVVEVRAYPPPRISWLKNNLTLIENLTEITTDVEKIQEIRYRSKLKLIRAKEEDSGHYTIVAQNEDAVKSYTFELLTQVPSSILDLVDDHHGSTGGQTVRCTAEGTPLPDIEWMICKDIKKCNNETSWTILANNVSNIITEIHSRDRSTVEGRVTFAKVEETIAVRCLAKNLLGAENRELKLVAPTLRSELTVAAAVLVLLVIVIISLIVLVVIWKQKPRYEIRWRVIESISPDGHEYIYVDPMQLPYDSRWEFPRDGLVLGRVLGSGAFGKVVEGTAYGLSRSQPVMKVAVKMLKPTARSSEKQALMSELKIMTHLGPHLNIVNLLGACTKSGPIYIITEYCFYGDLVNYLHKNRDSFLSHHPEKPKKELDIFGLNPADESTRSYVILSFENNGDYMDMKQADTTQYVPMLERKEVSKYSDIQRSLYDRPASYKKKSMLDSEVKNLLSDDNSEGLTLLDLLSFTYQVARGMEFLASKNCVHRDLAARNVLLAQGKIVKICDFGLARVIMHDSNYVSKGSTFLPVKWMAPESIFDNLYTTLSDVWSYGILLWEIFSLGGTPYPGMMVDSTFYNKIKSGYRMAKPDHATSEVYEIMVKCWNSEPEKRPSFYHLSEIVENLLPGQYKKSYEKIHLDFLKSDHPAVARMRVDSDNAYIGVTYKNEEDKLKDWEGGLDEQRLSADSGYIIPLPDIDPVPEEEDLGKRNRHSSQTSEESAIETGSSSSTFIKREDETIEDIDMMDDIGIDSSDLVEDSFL", "settings": "PDGFRa (D842V), [ATP] 1 µM, compound 10 uM; for remaining activity at 10 µM: read-out: % Enzyme Activity (relative to DMSO controls)"}, "[8]": {"molecular_target": "T8, 382 unique human kinases (Homo sapiens, UniProt P54760)", "T8 construct": "purchased Reaction Biology (HotSpot contract assay)", "T8 sequence (P54760 16-987)": "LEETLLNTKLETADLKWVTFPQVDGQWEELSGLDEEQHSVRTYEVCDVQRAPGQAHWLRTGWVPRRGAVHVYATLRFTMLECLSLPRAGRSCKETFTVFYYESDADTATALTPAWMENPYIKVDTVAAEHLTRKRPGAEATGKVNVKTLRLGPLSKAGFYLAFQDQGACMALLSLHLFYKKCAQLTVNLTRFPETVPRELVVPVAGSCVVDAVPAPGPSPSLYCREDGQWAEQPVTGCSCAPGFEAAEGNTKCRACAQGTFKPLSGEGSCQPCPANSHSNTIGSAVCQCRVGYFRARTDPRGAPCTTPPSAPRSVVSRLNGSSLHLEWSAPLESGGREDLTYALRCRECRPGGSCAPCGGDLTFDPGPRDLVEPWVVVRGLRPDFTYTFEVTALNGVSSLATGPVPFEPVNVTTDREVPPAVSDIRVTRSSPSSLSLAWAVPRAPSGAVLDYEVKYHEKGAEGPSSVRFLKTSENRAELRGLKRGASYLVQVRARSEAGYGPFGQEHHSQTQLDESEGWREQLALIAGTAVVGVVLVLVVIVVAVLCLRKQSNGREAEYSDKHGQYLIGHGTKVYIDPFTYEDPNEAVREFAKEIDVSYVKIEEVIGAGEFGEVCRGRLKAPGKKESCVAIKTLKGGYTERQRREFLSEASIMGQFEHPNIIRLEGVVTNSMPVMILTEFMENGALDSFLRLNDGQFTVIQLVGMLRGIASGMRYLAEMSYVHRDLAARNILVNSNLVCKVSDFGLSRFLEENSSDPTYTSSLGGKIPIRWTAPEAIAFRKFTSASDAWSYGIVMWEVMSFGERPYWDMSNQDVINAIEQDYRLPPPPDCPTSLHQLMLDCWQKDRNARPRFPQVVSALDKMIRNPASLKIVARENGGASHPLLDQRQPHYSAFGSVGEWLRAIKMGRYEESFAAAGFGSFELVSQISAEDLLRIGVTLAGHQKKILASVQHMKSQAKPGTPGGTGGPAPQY", "settings": "EPHB4, [ATP] 20 µM, compound 10 uM; for remaining activity at 10 µM: read-out: % Enzyme Activity (relative to DMSO controls)"}, "[9]": {"molecular_target": "T9, 382 unique human kinases (Homo sapiens, UniProt Q13153)", "T9 construct": "purchased Reaction Biology (HotSpot contract assay)", "T9 sequence (Q13153 whole entry)": "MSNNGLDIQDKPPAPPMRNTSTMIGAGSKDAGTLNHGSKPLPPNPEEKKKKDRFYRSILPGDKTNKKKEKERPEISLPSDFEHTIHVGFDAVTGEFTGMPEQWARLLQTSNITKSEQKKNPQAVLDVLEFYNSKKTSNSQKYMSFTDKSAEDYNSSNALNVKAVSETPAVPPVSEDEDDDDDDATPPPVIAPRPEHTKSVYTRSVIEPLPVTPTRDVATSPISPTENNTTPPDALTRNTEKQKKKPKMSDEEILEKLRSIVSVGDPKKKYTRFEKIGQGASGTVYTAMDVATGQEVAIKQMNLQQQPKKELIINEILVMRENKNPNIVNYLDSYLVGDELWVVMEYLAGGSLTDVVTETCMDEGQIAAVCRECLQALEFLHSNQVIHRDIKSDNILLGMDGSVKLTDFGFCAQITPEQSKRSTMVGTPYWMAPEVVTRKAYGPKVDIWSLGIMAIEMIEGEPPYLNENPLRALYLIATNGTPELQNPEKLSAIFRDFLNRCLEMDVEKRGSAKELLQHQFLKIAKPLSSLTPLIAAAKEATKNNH", "settings": "PAK1, 10 uM; for remaining activity at 10 µM: read-out: % Enzyme Activity (relative to DMSO controls)"}},
  "note": "Where two headings read alike, the source gives them in different places.",
  "data": [
    {"smiles": "CC(C)c1cc(-c2n[nH]c(=O)n2-c2ccc3c(ccn3C)c2)c(O)cc1O", "note": "[Ganetespib (STA9090)]", "values": [
      {"measurement": "remaining activity at 10 µM", "setting": "[1]", "value": 91.3, "unit": "%"},
      {"measurement": "remaining activity at 10 µM", "setting": "[2]", "value": 142, "unit": "%"},
      {"measurement": "remaining activity at 10 µM", "setting": "[3]", "value": 89.4, "unit": "%"},
      {"measurement": "remaining activity at 10 µM", "setting": "[4]", "value": 82, "unit": "%"}
    ]},
    {"smiles": "CC(C)c1cc(-c2n[nH]c(=O)n2-c2ccc3c(ccn3C)c2)c(O)cc1O", "note": "[Ganetespib]", "values": [
      {"measurement": "remaining activity at 10 µM", "setting": "[5]", "value": 92.2, "unit": "%"},
      {"measurement": "remaining activity at 10 µM", "setting": "[6]; RET (Y791F)", "value": 60.9, "unit": "%"},
      {"measurement": "remaining activity at 10 µM", "setting": "[7]", "value": 76.2, "unit": "%"},
      {"measurement": "remaining activity at 10 µM", "setting": "[8]", "value": 33.1, "unit": "%"},
      {"measurement": "remaining activity at 10 µM", "setting": "[9]", "value": 97.2, "unit": "%"}
    ]},
    {"smiles": "CCNC(=O)c1noc(-c2cc(C(C)C)c(O)cc2O)c1-c1ccc(CN2CCOCC2)cc1", "note": "[Luminespib (AUY-922)]", "values": [
      {"measurement": "% Enzyme Activity (relative to DMSO controls)", "setting": "[1]", "value": 97.02, "unit": "%"},
      {"measurement": "remaining activity at 10 µM", "setting": "[1]", "value": 99.7, "unit": "%"},
      {"measurement": "% Enzyme Activity (relative to DMSO controls)", "setting": "[2]", "value": 113.96, "unit": "%"},
      {"measurement": "remaining activity at 10 µM", "setting": "[2]", "value": 114, "unit": "%"},
      {"measurement": "% Enzyme Activity (relative to DMSO controls)", "setting": "[3]", "value": 105.06, "unit": "%"},
      {"measurement": "remaining activity at 10 µM", "setting": "[3]", "value": 107, "unit": "%"},
      {"measurement": "% Enzyme Activity (relative to DMSO controls)", "setting": "[4]", "value": 98.54, "unit": "%"},
      {"measurement": "remaining activity at 10 µM", "setting": "[4]", "value": 99.7, "unit": "%"}
    ]},
    {"smiles": "CCNC(=O)c1noc(-c2cc(C(C)C)c(O)cc2O)c1-c1ccc(CN2CCOCC2)cc1", "note": "[Luminespib]", "values": [
      {"measurement": "% Enzyme Activity (relative to DMSO controls)", "setting": "[5]", "value": 91.98, "unit": "%"},
      {"measurement": "remaining activity at 10 µM", "setting": "[5]", "value": 93.3, "unit": "%"},
      {"measurement": "remaining activity at 10 µM", "setting": "[6]; RET (Y791F)", "value": 100, "unit": "%"},
      {"measurement": "remaining activity at 10 µM", "setting": "[6]; […]", "value": 99.9, "unit": "%"},
      {"measurement": "% Enzyme Activity (relative to DMSO controls)", "setting": "[7]", "value": 50.60, "unit": "%"},
      {"measurement": "remaining activity at 10 µM", "setting": "[7]", "value": 59.9, "unit": "%"},
      {"measurement": "% Enzyme Activity (relative to DMSO controls)", "setting": "[8]", "value": 81.04, "unit": "%"},
      {"measurement": "remaining activity at 10 µM", "setting": "[8]", "value": 82.2, "unit": "%"},
      {"measurement": "% Enzyme Activity (relative to DMSO controls)", "setting": "[9]", "value": 101.44, "unit": "%"},
      {"measurement": "remaining activity at 10 µM", "setting": "[9]", "value": 102, "unit": "%"}
    ]}
  ]
}
